Reference: publication PMC6487453 (ACS Central Science, 2019)

Target: T1, LTA4H (Homo sapiens, UniProt P09960)
T1 sequence (P09960 2-611): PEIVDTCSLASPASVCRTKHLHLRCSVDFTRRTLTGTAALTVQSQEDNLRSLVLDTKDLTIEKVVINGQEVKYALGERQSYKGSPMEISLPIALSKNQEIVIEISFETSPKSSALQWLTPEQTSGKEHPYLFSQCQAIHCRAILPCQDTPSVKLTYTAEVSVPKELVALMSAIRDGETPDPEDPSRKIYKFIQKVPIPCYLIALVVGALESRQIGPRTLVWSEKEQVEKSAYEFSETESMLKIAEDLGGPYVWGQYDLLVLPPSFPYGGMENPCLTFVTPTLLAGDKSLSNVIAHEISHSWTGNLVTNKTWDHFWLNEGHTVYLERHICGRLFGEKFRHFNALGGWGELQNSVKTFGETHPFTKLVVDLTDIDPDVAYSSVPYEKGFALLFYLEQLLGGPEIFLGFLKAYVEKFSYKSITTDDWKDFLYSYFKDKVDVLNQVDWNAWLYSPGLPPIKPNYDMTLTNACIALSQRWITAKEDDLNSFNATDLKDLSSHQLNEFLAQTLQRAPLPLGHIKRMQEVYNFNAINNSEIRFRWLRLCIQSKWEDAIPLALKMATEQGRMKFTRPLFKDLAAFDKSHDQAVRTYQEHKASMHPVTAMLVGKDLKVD
Assay: colorimetric peptidase assay, 4-nitroaniline absorption at […] nm
Type: biochemical
Conditions: 50 mM HEPES pH 7.5, 100 mM KCl

| Structure (SMILES) | colorimetric peptidase assay, 4-nitroaniline absorption at 410 nm (inhibitor, L-alanine 4-nitroanilide 1 mM, 460 nm light) | colorimetric peptidase assay, 4-nitroaniline absorption at 410 nm (1 mM substrate) |
| --- | --- | --- |
| c1ccc(/N=N/c2ccc(OCCN3CCCC3)cc2)cc1 [trans-LTA4H-Photoswitch] | trans-LTA4H-Photoswitch was a more potent inhibitor of LTA4H peptidase than the cis-isomer | – |
| C[C@H](N)C(=O)Nc1ccc([N+](=O)[O-])cc1 [L-alanine 4-nitroanilide] | – | L-alanine 4-nitroanilide which is converted to the strongly absorbing 4-nitroaniline |
